Assay results: patent US9963458B2, “Indole and indoline-type piperidine compounds and uses thereof” (priority 2012, dated 2018)

How the values were obtained:
Format in all cases: in vitro ADME
Settings in all cases: procedure of Example 14
CYP2D6 = target: T1, CYP2D6 (Homo sapiens, UniProt P10635); assay: Cytochrome P450 inhibition, pooled human hepatic microsome (O-demethylation of dextromethorphan)
T1 construct: 0.2 mg protein/mL pooled human hepatic microsome enzyme; from tissue; host or cells: pooled human hepatic microsomes

CYP1A2 = target: T2, CYP1A2 (Homo sapiens, UniProt P05177); assay: Cytochrome P450 inhibition, pooled human hepatic microsome
T2 sequence (P05177 1-516): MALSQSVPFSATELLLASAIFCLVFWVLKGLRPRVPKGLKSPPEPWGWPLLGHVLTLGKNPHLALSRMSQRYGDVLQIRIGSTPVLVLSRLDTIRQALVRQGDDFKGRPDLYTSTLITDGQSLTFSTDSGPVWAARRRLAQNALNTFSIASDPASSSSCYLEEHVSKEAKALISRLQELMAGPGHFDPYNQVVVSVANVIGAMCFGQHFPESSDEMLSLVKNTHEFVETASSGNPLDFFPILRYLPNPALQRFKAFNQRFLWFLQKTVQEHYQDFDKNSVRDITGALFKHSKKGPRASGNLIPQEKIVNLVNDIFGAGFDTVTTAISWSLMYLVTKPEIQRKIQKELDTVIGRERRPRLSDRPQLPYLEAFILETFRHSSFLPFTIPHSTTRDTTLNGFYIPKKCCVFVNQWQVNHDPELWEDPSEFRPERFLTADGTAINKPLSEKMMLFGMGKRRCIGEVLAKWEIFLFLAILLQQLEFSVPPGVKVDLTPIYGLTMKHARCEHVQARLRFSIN

CYP3A4 = target: T3, CYP3A4 (Homo sapiens, UniProt P08684); assay: as above
T3 construct: 0.2 mg protein/mL pooled human hepatic microsome enzyme; from tissue; host or cells: pooled human hepatic microsomes

CYP2C9 = target: T4, CYP2C9 (Homo sapiens, UniProt P11712); assay: as above
T4 construct: 0.2 mg protein/mL pooled human hepatic microsome enzyme; from tissue; host or cells: pooled human hepatic microsomes
T4 sequence (P11712 whole entry): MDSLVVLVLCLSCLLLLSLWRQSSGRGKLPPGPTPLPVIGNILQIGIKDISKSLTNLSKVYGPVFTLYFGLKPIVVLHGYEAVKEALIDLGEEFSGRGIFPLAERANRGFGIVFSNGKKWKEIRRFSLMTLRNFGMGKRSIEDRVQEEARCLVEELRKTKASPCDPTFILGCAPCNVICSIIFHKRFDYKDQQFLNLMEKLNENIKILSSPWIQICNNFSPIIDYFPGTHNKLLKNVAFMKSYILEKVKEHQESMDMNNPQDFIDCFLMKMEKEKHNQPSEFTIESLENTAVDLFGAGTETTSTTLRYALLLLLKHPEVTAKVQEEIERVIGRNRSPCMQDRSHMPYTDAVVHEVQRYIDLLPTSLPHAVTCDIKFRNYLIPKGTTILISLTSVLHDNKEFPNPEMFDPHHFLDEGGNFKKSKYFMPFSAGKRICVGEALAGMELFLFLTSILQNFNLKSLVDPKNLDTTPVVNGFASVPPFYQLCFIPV

T3 sequence (P08684 whole entry): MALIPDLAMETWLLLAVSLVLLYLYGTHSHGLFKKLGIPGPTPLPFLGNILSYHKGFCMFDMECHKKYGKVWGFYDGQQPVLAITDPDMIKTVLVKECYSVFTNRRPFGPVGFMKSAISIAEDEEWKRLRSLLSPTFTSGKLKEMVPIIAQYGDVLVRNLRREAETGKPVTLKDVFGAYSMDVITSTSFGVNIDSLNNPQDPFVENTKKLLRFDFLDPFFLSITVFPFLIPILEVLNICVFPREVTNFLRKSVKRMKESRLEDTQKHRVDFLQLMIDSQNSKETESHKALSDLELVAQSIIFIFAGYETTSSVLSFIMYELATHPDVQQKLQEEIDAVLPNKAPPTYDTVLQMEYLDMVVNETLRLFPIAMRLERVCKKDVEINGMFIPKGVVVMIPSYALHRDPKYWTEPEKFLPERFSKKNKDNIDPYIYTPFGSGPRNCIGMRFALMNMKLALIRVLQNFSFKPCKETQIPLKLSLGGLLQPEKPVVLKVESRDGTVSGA
T1 sequence (P10635 whole entry): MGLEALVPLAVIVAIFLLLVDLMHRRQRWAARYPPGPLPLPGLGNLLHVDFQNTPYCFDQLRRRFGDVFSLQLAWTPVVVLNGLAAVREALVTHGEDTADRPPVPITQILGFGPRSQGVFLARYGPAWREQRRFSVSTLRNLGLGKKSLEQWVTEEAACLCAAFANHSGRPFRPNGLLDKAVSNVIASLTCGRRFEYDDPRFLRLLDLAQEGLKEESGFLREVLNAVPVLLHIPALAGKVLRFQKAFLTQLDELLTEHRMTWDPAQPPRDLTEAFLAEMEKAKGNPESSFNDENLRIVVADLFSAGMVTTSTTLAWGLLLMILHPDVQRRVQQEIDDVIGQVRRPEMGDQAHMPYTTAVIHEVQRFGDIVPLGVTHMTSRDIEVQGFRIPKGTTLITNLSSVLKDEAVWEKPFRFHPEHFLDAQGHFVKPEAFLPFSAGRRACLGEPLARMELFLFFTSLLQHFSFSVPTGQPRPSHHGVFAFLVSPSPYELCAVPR

Row | Compound | IC50 (CYP2D6) [µM] | IC50 (CYP1A2) [µM] | IC50 (CYP3A4) [µM] | IC50 (CYP2C9) [µM]
1 | O=C(O)Cc1cn([C@H]2C[C@H]3CCC[C@@H](C2)N3[C@H]2C[C@@H]3CCC[C@@H](C3)C2)c2ccccc12 [Compound 7] | 14.6 | > 20 | > 20 | > 20
2 | O=C(O)Cc1cn([C@H]2C[C@H]3CCC[C@@H](C2)N3C2CCCCCCCCC2)c2ccccc12 [Compound 23, 2-(1-((1R,3r,5S)-9-cyclodecyl-9-azabicyclo[3.3.1]nonan-3-yl)-1H-indol-3-yl)acetic acid] | 1.15 | > 20 | > 20 | > 20
3 | c1ccc2c(c1)ccn2[C@H]1C[C@H]2CCC[C@@H](C1)N2[C@H]1C[C@@H]2CCC[C@@H](C2)C1 [Compound 11] | > 20 | > 20 | > 20 | > 20
